# Measured values taken from US20180371044A1, “PEPTIDOMIMETIC MACROCYCLES” (Aileron Therapeutics, Inc., priority 2015, published 2018).
# Where a SMILES comes first, the peptide text is derived from it. Bridges are numbered along the chain shown (N, C = ends). [ ]: non-standard residue; d: D form. NMeY = CN[C@@H](Cc1ccc(O)cc1)C(=O)O; R8 = C=CCCCCCC[C@@](C)(N)C(=O)O; Cit = NC(=O)NCCC[C@H](N)C(=O)O; S5 = C=CCCC[C@](C)(N)C(=O)O; Nle = CCCC[C@H](N)C(=O)O; Aib = CC(C)(N)C(=O)O
# Molecular target: T1, human GHRH receptor (hGHRHR) (Homo sapiens, UniProt Q02643)
# T1 construct: expressed in transfected cells; host or cells: Human 293 cells
# T1 sequence (Q02643 23-423): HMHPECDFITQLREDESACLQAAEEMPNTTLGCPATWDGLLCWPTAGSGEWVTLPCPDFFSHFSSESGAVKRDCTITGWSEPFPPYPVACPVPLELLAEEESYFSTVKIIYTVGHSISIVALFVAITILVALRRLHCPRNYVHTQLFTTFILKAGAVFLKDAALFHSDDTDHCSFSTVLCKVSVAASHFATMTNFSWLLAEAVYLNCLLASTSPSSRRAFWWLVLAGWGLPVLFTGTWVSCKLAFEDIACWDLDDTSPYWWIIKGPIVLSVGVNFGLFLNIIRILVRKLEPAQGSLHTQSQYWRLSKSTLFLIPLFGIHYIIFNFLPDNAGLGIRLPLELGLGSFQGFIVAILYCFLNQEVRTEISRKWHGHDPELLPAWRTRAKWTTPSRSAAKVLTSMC
# Assay: GHRHR agonism measured by cAMP (HTRF) in human 293 cells expressing hGHRHR;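 also: receptor expressed transiently or stably, cells stimulated in serum-free medium, EC50 from a non-linear dose-response fit, maximal response defined by reference GHRH stimulation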
# Type: cell-based
# Conditions: 30 min at RT
row,SMILES,EC50
1,CCCC[C@H](NC(=O)[C@@H](NC(=O)[C@H](CC(=O)O)NC(=O)[C@H](CCC(N)=O)NC(=O)[C@H](CC(C)C)NC(=O)[C@H](C)NC(=O)[C@H](CCCCN)NC(=O)[C@H](CCCNC(=N)N)NC(=O)[C@H](C)NC(=O)[C@H](CO)NC(=O)[C@H](CC(C)C)NC(=O)[C@H](CCC(N)=O)NC(=O)[C@H](C)NC(=O)[C@H](CC(C)C)NC(=O)[C@@H](NC(=O)[C@H](CCCCN)NC(=O)[C@H](CCCNC(N)=O)NC(=O)[C@H](Cc1ccc(O)cc1)NC(=O)[C@H](CO)NC(=O)[C@H](C)NC(=O)[C@@H](NC(=O)[C@H](Cc1ccccc1)NC(=O)[C@@H](NC(=O)[C@H](C)NC(=O)[C@H](CC(=O)O)NC(=O)[C@H](C)NC(=O)[C@H](Cc1ccc(O)cc1)NC)[C@@H](C)CC)[C@@H](C)O)C(C)C)[C@@H](C)CC)C(=O)N[C@@H](CO)C(=O)N[C@@H](CCCNC(=N)N)C(N)=O [SP-47] (H-[NMeY]ADAIFTASY[Cit]KVLAQLSARKALQDI[Nle]SR-NH2),≤ 1 nM
2,CCCC[C@H](NC(=O)[C@@H](NC(=O)[C@H](C)NC(=O)[C@H](CCC(N)=O)NC(=O)[C@H](CC(C)C)NC(=O)[C@H](C)NC(=O)[C@H](CCCCN)NC(=O)[C@H](CCCNC(=N)N)NC(=O)[C@]1(C)CCCC=CCCCCCC[C@@](C)(NC(=O)[C@H](CCCNC(=N)N)NC(=O)[C@H](Cc2ccc(O)cc2)NC(=O)[C@H](CO)NC(=O)[C@H](C)NC(=O)[C@@H](NC(=O)[C@H](Cc2ccccc2)NC(=O)[C@@H](NC(=O)[C@H](C)NC(=O)[C@H](CC(=O)O)NC(=O)[C@H](C)NC(=O)[C@H](Cc2ccc(O)cc2)NC)[C@@H](C)CC)[C@@H](C)O)C(=O)N[C@@H](C(C)C)C(=O)N[C@@H](CC(C)C)C(=O)N[C@@H](C)C(=O)N[C@@H](CCC(N)=O)C(=O)N[C@@H](CC(C)C)C(=O)N[C@@H](CO)C(=O)N1)[C@@H](C)CC)C(=O)N[C@@H](CO)C(=O)N[C@@H](CCCNC(=N)N)C(N)=O [SP-61] (H-[NMeY]ADAIFTASYR[R8]VLAQLS[S5]RKALQAI[Nle]SR-NH2; staple 12-19),10 to 25 nM
3,CCCC[C@H](NC(=O)[C@@H](NC(=O)[C@]1(C)CCCC=CCCCCCC[C@@](C)(NC(=O)[C@H](CC(C)C)NC(=O)[C@H](CCC(N)=O)NC(=O)[C@H](C)NC(=O)[C@H](CC(C)C)NC(=O)[C@@H](NC(=O)[C@H](CCCCN)NC(=O)[C@H](CCCNC(=N)N)NC(=O)[C@H](Cc2ccc(O)cc2)NC(=O)[C@H](CO)NC(=O)[C@H](C)NC(=O)[C@@H](NC(=O)[C@H](Cc2ccccc2)NC(=O)[C@@H](NC(=O)[C@H](C)NC(=O)[C@H](CC(=O)O)NC(=O)[C@H](C)NC(=O)[C@H](Cc2ccc(O)cc2)NC)[C@@H](C)CC)[C@@H](C)O)C(C)C)C(=O)N[C@@H](C)C(=O)N[C@@H](CCCNC(=N)N)C(=O)N[C@@H](CCCCN)C(=O)N[C@@H](C)C(=O)N[C@@H](CC(C)C)C(=O)N[C@@H](CCC(N)=O)C(=O)N1)[C@@H](C)CC)C(=O)N[C@@H](CO)C(=O)N[C@@H](CCCNC(=N)N)C(N)=O [SP-30] (H-[NMeY]ADAIFTASYRKVLAQL[R8]ARKALQ[S5]I[Nle]SR-NH2; staple 18-25),1 to 10 nM
4,CCCC[C@H](NC(=O)[C@@H](NC(=O)[C@H](CC(=O)O)NC(=O)[C@H](CCC(N)=O)NC(=O)[C@H](CC(C)C)NC(=O)[C@H](C)NC(=O)[C@H](CCCCN)NC(=O)[C@H](CCCNC(=N)N)NC(=O)[C@]1(C)CCCC=CCCC[C@](C)(NC(=O)[C@H](CC(C)C)NC(=O)[C@@H](NC(=O)[C@H](CCCCN)NC(=O)[C@H](CCCNC(=N)N)NC(=O)[C@H](Cc2ccc(O)cc2)NC(=O)[C@H](CO)NC(=O)[C@H](C)NC(=O)[C@@H](NC(=O)[C@H](Cc2ccccc2)NC(=O)[C@@H](NC(=O)[C@H](C)NC(=O)[C@H](CC(=O)O)NC(=O)[C@H](C)NC(=O)[C@H](Cc2ccc(O)cc2)NC)[C@@H](C)CC)[C@@H](C)O)C(C)C)C(=O)N[C@@H](CCC(N)=O)C(=O)N[C@@H](CC(C)C)C(=O)N[C@@H](CO)C(=O)N1)[C@@H](C)CC)C(=O)N[C@@H](CO)C(=O)N[C@@H](CCCNC(=N)N)C(N)=O [SP-14] (H-[NMeY]ADAIFTASYRKVL[S5]QLS[S5]RKALQDI[Nle]SR-NH2; staple 15-19),1 to 10 nM
5,CCCC[C@H](NC(=O)[C@@H](NC(=O)[C@H](CC(=O)O)NC(=O)[C@H](CCC(N)=O)NC(=O)[C@H](CC(C)C)NC(=O)C(C)(C)NC(=O)[C@H](CCCCN)NC(=O)[C@H](CCCNC(=N)N)NC(=O)[C@]1(C)CCCC=CCCCCCC[C@@](C)(NC(=O)[C@H](CCCNC(=N)N)NC(=O)[C@H](Cc2ccc(O)cc2)NC(=O)[C@H](CO)NC(=O)[C@H](C)NC(=O)[C@@H](NC(=O)[C@H](Cc2ccccc2)NC(=O)[C@@H](NC(=O)[C@H](C)NC(=O)[C@H](CC(=O)O)NC(=O)[C@H](C)NC(=O)[C@H](Cc2ccc(O)cc2)NC)[C@@H](C)CC)[C@@H](C)O)C(=O)N[C@@H](C(C)C)C(=O)N[C@@H](CC(C)C)C(=O)N[C@@H](C)C(=O)N[C@@H](CCC(N)=O)C(=O)N[C@@H](CC(C)C)C(=O)N[C@@H](CO)C(=O)N1)[C@@H](C)CC)C(=O)N[C@@H](CO)C(=O)N[C@@H](CCCNC(=N)N)C(N)=O [SP-65] (H-[NMeY]ADAIFTASYR[R8]VLAQLS[S5]RK[Aib]LQDI[Nle]SR-NH2; staple 12-19),25 to 50 nM
6,CCCC[C@H](NC(=O)[C@@H](NC(=O)[C@H](CC(=O)O)NC(=O)[C@H](CCC(N)=O)NC(=O)[C@H](CC(C)C)NC(=O)[C@H](C)NC(=O)[C@H](CCCCN)NC(=O)[C@H](CCCNC(=N)N)NC(=O)[C@H](C)NC(=O)[C@H](CO)NC(=O)[C@H](CC(C)C)NC(=O)[C@H](CCC(N)=O)NC(=O)[C@H](C)NC(=O)[C@H](CC(C)C)NC(=O)[C@@H](NC(=O)[C@H](CCCCN)NC(=O)[C@H](CCCNC(=N)N)NC(=O)[C@H](Cc1ccc(O)cc1)NC(=O)[C@H](CO)NC(=O)[C@H](C)NC(=O)[C@@H](NC(=O)[C@H](Cc1ccccc1)NC(=O)[C@@H](NC(=O)[C@H](C)NC(=O)[C@H](CC(=O)O)NC(=O)[C@@H](C)NC(=O)[C@@H](N)Cc1ccc(O)cc1)[C@@H](C)CC)[C@@H](C)O)C(C)C)[C@@H](C)CC)C(=O)N[C@@H](CO)C(=O)N[C@@H](CCCNC(=N)N)C(N)=O [SP-46] (H-Y[dA]DAIFTASYRKVLAQLSARKALQDI[Nle]SR-NH2),≤ 1 nM
7,CCCC[C@H](NC(=O)[C@@H](NC(=O)[C@]1(C)CCCC=CCCC[C@](C)(NC(=O)[C@H](CCCNC(=N)N)NC(=O)[C@H](C)NC(=O)[C@H](CO)NC(=O)[C@H](CC(C)C)NC(=O)[C@H](CCC(N)=O)NC(=O)[C@H](C)NC(=O)[C@H](CC(C)C)NC(=O)[C@@H](NC(=O)[C@H](CCCCN)NC(=O)[C@H](CCCNC(=N)N)NC(=O)[C@H](Cc2ccc(O)cc2)NC(=O)[C@H](CO)NC(=O)[C@H](C)NC(=O)[C@@H](NC(=O)[C@H](Cc2ccccc2)NC(=O)[C@@H](NC(=O)[C@H](C)NC(=O)[C@H](CC(=O)O)NC(=O)[C@H](C)NC(=O)[C@H](Cc2ccc(O)cc2)NC)[C@@H](C)CC)[C@@H](C)O)C(C)C)C(=O)N[C@@H](C)C(=O)N[C@@H](CC(C)C)C(=O)N[C@@H](CCC(N)=O)C(=O)N1)[C@@H](C)CC)C(=O)N[C@@H](CO)C(=O)N[C@@H](CCCNC(=N)N)C(N)=O [SP-18] (H-[NMeY]ADAIFTASYRKVLAQLSAR[S5]ALQ[S5]I[Nle]SR-NH2; staple 21-25),10 to 25 nM
8,CCCC[C@H](NC(=O)[C@@H](NC(=O)[C@H](CC(=O)O)NC(=O)[C@H](CCC(N)=O)NC(=O)[C@H](CC(C)C)NC(=O)[C@H](C)NC(=O)[C@H](CCCCN)NC(=O)[C@H](CCCNC(=N)N)NC(=O)[C@H](C)NC(=O)[C@H](CO)NC(=O)[C@H](CC(C)C)NC(=O)[C@H](CCC(N)=O)NC(=O)[C@H](C)NC(=O)[C@H](CC(C)C)NC(=O)[C@@H](NC(=O)[C@H](CCCCN)NC(=O)[C@H](CCCNC(=N)N)NC(=O)[C@H](Cc1ccc(O)cc1)NC(=O)[C@H](CO)NC(=O)[C@H](C)NC(=O)[C@@H](NC(=O)[C@H](Cc1ccccc1)NC(=O)[C@@H](NC(=O)[C@H](C)NC(=O)[C@H](CC(=O)O)NC(=O)[C@H](C)NC(=O)[C@H](Cc1ccc(O)cc1)NC)[C@@H](C)CC)[C@@H](C)O)C(C)C)[C@@H](C)CC)C(=O)N[C@@H](CO)C(=O)N[C@@H](CCCNC(=N)N)C(N)=O [SP-35] (H-[NMeY]ADAIFTASYRKVLAQLSARKALQDI[Nle]SR-NH2),≤ 1 nM
9,CCCC[C@H](NC(=O)[C@@H](NC(=O)[C@H](CC(=O)O)NC(=O)[C@H](CCC(N)=O)NC(=O)[C@H](CC(C)C)NC(=O)C(C)(C)NC(=O)[C@H](CCCCN)NC(=O)[C@H](CCCNC(=N)N)NC(=O)[C@H](C)NC(=O)[C@H](CO)NC(=O)[C@H](CC(C)C)NC(=O)[C@H](CCC(N)=O)NC(=O)[C@H](C)NC(=O)[C@H](CC(C)C)NC(=O)[C@@H](NC(=O)[C@H](CCCCN)NC(=O)[C@H](CCCNC(=N)N)NC(=O)[C@H](Cc1ccc(O)cc1)NC(=O)[C@H](CO)NC(=O)C(C)(C)NC(=O)[C@@H](NC(=O)[C@H](Cc1ccccc1)NC(=O)[C@@H](NC(=O)[C@H](C)NC(=O)[C@H](CC(=O)O)NC(=O)[C@H](C)NC(=O)[C@H](Cc1ccc(O)cc1)NC)[C@@H](C)CC)[C@@H](C)O)C(C)C)[C@@H](C)CC)C(=O)N[C@@H](CO)C(=O)N[C@@H](CCCNC(=N)N)C(N)=O [SP-52] (H-[NMeY]ADAIFT[Aib]SYRKVLAQLSARK[Aib]LQDI[Nle]SR-NH2),1 to 10 nM
